# Reference: patent publication US8383595B2, “Peptide derivative and composition for promoting tear secretion comprising the same” (Kinki University, priority 2008, dated 2013)
# Where no end group is shown, it is not given here.
# Assays:
# rat lacrimal secretion [1] = test: Rat lacrimal fluid secretion in vivo (Schirmer test paper); conditions: male Wistar rat; for lacrimal secretion promoting action: peptide 5 μmol/kg i.v. one minute after amastatin 2.5 μmol/kg i.v., six minutes after administration (FIGS. 1, 3); for lacrimal secretion promoting action compared with Ser-Leu-Ile-Gly-Arg-Leu-NH2 and Ile-Gly-Arg-Leu-NH2: six minutes after administration (FIGS. 2, 4)
# Description: An amount of lacrimal secretion which is an indication for determining an effect of promoting lacrimal secretion can be measured according to a known method such as by Iga et al. (Iga, Y. et al., Jpn. J. Pharmacol., 78, 373-80, 1998) using a rat. In particular, a rat is anesthetized with pentobarbital (50 mg/kg, intra-abdominal administration), and a paper with 2 mm width for testing the human lacrimal secretion function, the Schirmer test paper (Showa Yakuhin Kako Co., Ltd.) is inserted into a lower eyelid of the rat. After a fixed period of time has passed, the test paper is removed, and a length of the wetted portion of the test paper is measured using a caliper square. If a statistically significant increase of lacrimal secretion is observed when a test substance is administered, it can be said that the substance has the lacrimal secretion promoting action.
# Male Wistar rat at 6 weeks of age was used in experiments. Each animal was housed for one week under the environment of room temperature of 23±2° C., a humidity of 50±5% and a 12 hours light/dark cycle (light: 07:00-19:00) and, thereafter, it was subjected to experiments. During the housing and experiment period, the animal was fed a solid chaw and water ad lib.
# An amount of rat lacrimal fluid secretion was measured according to the method of Iga et al. (Iga, Y. et al., Jpn. J. Pharmacol., 78, 373-80, 1998). That is, the rat was anesthetized with pentobarbital (50 mg/kg, intraabdominal administration), and a paper with 2 mm width for testing human lacrimal secretion function, the Schirmer test paper (Showa Yakuhin Kako Co., Ltd.) was inserted into a lower eyelid of the rat. After the period of time fixed has passed, the test paper was removed, and a length of a wetted portion of the test paper was measured using a caliper square to define an indicator of lacrimal secretion. An amount of lacrimal fluid was measured at 1, 2, 4 and 6 minutes after administration of the peptides.
# In addition, the results are shown in the mean (mm)±standard error, and the test of significance was performed according to a Tukey's multiple comparison test.
# A physiological salt solution of amastatin (2.5 μmol/kg), which is an aminopeptidase inhibitor, was intravenously administrated to the rat, and after one minute, a physiological salt solution of various peptide derivatives (5 μmol/kg) was intravenously administrated. Measurements were initiated immediately after administration of the peptides.
# As a control, an amount of lacrimal secretion was also measured in the case where the physiological salt solution without the peptide (solvent) was intravenously, administrated.
# PAR-2 = conditions: as disclosed in JP 2001-181208A; cited from earlier work
# rat lacrimal secretion [2] = conditions: earlier finding, no details given; cited from earlier work
# [3] = peptide 5 μmol/kg i.v. after amastatin 2.5 μmol/kg i.v.
Compound,lacrimal secretion promoting action (rat lacrimal secretion [1]),further results
cyclo-L-Arg-L-Leu-NH2 [cyclo-Arg-Leu],did not entirely influence on lacrimal secretion,
"CC(C)C[C@H](NC(=O)[C@H](CCCNC(=N)N)NC(=O)c1ccco1)C(N)=O [2-furoyl-(L)Arg-(L)Leu-NH2, N-(2-furoyl)-L-Arg-L-Leu-NH2]",potent lacrimal secretion promoting action,"duration of the lacrimal secretion promoting action compared with Ser-Leu-Ile-Gly-Arg-Leu-NH2 and Ile-Gly-Arg-Leu-NH2 (rat lacrimal secretion [1]; peptide 5 μmol/kg i.v. after amastatin 2.5 μmol/kg i.v., measured at 1, 2, 4 and 6 minutes (FIG. 5)): maintained over a longer period of time; lacrimal secretion promoting action compared with Ser-Leu-Ile-Gly-Arg-Leu-NH2 and Ile-Gly-Arg-Leu-NH2 (rat lacrimal secretion [1]; [3]): almost the same as those of Ser-Leu-Ile-Gly-Arg-Leu-NH2 and Ile-Gly-Arg-Leu-NH2"
D-Arg-L-Leu-NH2 [(D) Arg-(L)Leu-NH2],did not entirely influence on lacrimal secretion,
L-Arg-D-Leu-NH2 [(L)Arg-(D)Leu-NH2],did not entirely influence on lacrimal secretion,
Ser-Leu-Ile-Gly-Arg-Leu-NH2 (SLIGRL-NH2),,activation of PAR-2 (PAR-2): activates PAR-2; lacrimal secretion promoting action (previously demonstrated) (rat lacrimal secretion [2]): previously demonstrated to have the lacrimal secretion promoting action
D-Arg-D-Leu-NH2 [(D)Arg-(D)Leu-NH2],did not entirely influence on lacrimal secretion,
L-Arg-L-Leu-NH2 [(L)Arg-(L)Leu-NH2],promote lacrimal secretion,lacrimal secretion promoting action compared with Ser-Leu-Ile-Gly-Arg-Leu-NH2 and Ile-Gly-Arg-Leu-NH2 (rat lacrimal secretion [1]; [3]): lower than those of Ser-Leu-Ile-Gly-Arg-Leu-NH2 and Ile-Gly-Arg-Leu-NH2
Ile-Gly-Arg-Leu-NH2 (IGRL-NH2) [Ile-Gly-Arg-Leu-NH7],,lacrimal secretion promoting action (previously demonstrated) (rat lacrimal secretion [2]): previously demonstrated to have the lacrimal secretion promoting action
